# Assay results taken from patent publication EP1620056B1, “TUMOR CYTOTOXICITY INDUCED BY MODULATORS OF THE CXCR4 RECEPTOR” (Morehouse School of Medicine, priority 2003, dated 2004).
# What was measured:
# [1] = system: epithelial tumor cell lines; assay: Apoptotic assay of Gp 120 and Nef peptides; type: cell-based, human; conditions: peptide sequences within Nef or Gp 120
# Source text: The nef protein was expressed and purified in the inventors' laboratory. overlapping 20 mer peptides encompassing the entire nef protein and overlapping 15 mer peptides encompassing the entire Gp 120 protein were obtained from the NIH AIDS Research & Reference Reagent Program (McKesson HBC Bio-Services, MD) Other specific peptides designed from within Gp 120 or nef were obtained from SigmaGenosys.
# Apoptosis generates DNA free ends which can be labeled in situ using terminal deoxynucleotidyl-transferase (TdT), incorporating an exogenously added labeled nucleotide to the DNA strand. This label can then be visualized directly by fluorescence or indirectly using anti-FITC-peroxidase, and a colorimetric assay. Cells on coverslips were washed with PBS, and fixed for 30 minutes at RT with 4% paraformaldehyde, in PBS, pH 7.4. They were then washed with PBS, and permeabilized with 0.1% Triton X-100 for 10 minutes at room temperature (RT). The slides were rinsed twice with PBS, and air dried for 2 minutes. The manufacturer's procedure for TUNEL staining the slides was followed (manufacturer's procedure for the In Situ Cell Death Detection Kit, AP; Boehringer Mannheim, Indianapolis, IN). Total cell counts were determined by counterstaining fixed cultures with 20 µg/ml of Hoechst 33258. […]
# [2] = system: MDA-MB231, MCF7, and DU4475; assay: Agarose gel electrophoresis / DNA fragmentation (DNA laddering) in CXCR4-expressing lines; type: cell-based, human; conditions: positive control, 10 mM (6.35 mg/ml), 24 hours, compared to untreated cultures
# Procedure: Untreated or treated cells were collected, and DNA was harvested from normal or cancer cell cultures. Briefly, the cells were washed with PBS, pelleted at 1600 g for 20 minutes at 4°C, and resuspended in 50 mM Tris-HCl, pH 7.5, 20 mM EDTA buffer at about 10^7 cells/ml. The cells were then treated 2x with lysis buffer: 1.0% NP-40 (Sigma, St. Louis, MO) in the same Tris/EDTA buffer at RT for 2 minutes followed by centrifugation at 1600 g for 5 minutes. After the last spin, SDS was added to the supernatant to 1% final concentration, RNase A (Sigma, St. Louis, MO) was added to 5 mg/ml final concentration, and the solution incubated at 56°C for 2 hours. Subsequently, protease K (Promega, Madison, WI) was added to the solution to 2.5 µg/ml and incubated at 37°C for 2.5 hr. Ammonium acetate was added to 4 M final concentration, 0.7 volumes of isopropanol was added, the solution was put at -20°C overnight followed by centrifugation at 14,000 rpm for 30 minutes. The pellets were washed twice with 70% ethanol, dried and resuspended in 10 mM Tris-HCl, pH 7.5, 1 mM EDTA. DNA samples, 18 µg per condition, were prepared in neutral loading buffer to a final concentration of 0.02% bromophenol blue, 5% glycerol, 0.1% SDS, and 50 µg of ethidium bromide, loaded onto a neutral agarose gel (1.7%), and run at 50V for 2.5 hours. […]
Substance,apoptotic properties of the sequence [1],DNA laddering [2]
ALAETCONAWA,lost all apoptotic effects,
ceramide,,DNA laddering characteristic of apoptotic cells was observed
